Experimental data as given in US9839647B2, “Equol concentration increasing agent containing psicose as active ingredient” (CJ CHEILJEDANG CORPORATION, priority 2011, dated 2017).

What was measured:
[1] = tested on: intestinal bacteria capable of producing equol; conditions: saccharide no add = 100.0; cited from earlier work
[2] = tested on: equol producing microorganism population; test: Change in produced equol amount in the presence of carbohydrate (TLC image analysis); assay type: cell-based, human; conditions: for Variation (produced equol amount relative to culture solution containing xylose and daidzein): 1% carbohydrate, 0.1 mM daidzein, three days, xylose = 100, average of image analysis for two coloring methods
Method: The activity for regulating equol concentration by psicose was calculated as follows. To a microorganism population stock having capability to produce equol (obtained by centrifuging and washing feces taken from equol producers, KR Patent Registration No. 2008-0072635), daidzein as a substrate for equol, and psicose were added, followed by culturing and measuring the equol concentration in a culture solution. The measured equol concentration was inserted together with equol concentration in a culture solution containing daidzein and xylose into Equation for calculating equol variation percentage below: Equol variation percentage (%)=(Equol concentration in the culture solution containing psicose and daidzein)/(Equol concentration in the culture solution containing xylose and daidzein)×100
GAM (Gifu anaerobic medium) medium (4 ml) was inoculated with equol producing microorganism population stock stored in liquid nitrogen (obtained by centrifuging and washing feces taken from equol producers, KR Patent Registration No. 2008-0072635), followed by cultivating for 3-4 hours to activate.
When OD (optical density) approached 1.5, 200 μl of medium was taken and transferred to an Eppendorf tube. To the Eppendorf tube, 0.1 mM of daidzein was added, followed by vortexing to initiate reaction.
In order to measure equol production over time, 50 μl of medium was sampled 1, 2 and 3 days after the inoculation.
To the medium, 1 ml of ethyl acetate was added to extract isoflavonoids. Extraction was performed as follows: after vortexing and centrifugation, 800 μl of ethyl acetate was taken from the medium, followed by removal of the solvent through vacuum drying. Then, the resultant was dissolved in 10 μl of methanol. 2 μl was used to perform TLC.
Equol producing microorganism population was inoculated and the product was extracted in the same manner as in Example 1 except that, before the substrate was inoculated with the activated microorganism population, the final concentration of carbohydrate was adjusted to 1% by adding 2 mg each of xylose, tagatose, psicose, sucrose, fructo-oligosaccharide, and glucose. Further, only daidzein was used as the substrate. Unlike the case where pure daidzein was used, the reaction rate of producing equol was changed when carbohydrates were added. Namely, the production of equol occurred more slowly for a long period of time.
In order to compare variation in the produced equol amount in the product, quantitative analysis of TLC results was performed using an image analyzer.
Assuming the produced equol amount in the culture solution containing xylose and daidzein to be 100, the produced equol amount after addition of each carbohydrate for three days was compared. The comparison results are as follows.

| Molecule | Activity to regulate equol concentration [1] [%] | Variation (produced equol amount relative to culture solution containing xylose and daidzein) [2] [%] | equol production ([2]; reaction condition for three days) |
| --- | --- | --- | --- |
| OC[C@@H](O)[C@@H](O)[C@@H](O)CO [Adonitol, adonitol] | 260.0 | – | – |
| OC[C@@H](O)[C@@H](O[C@@H]1O[C@H](CO)[C@H](O)[C@H](O)[C@H]1O)[C@H](O)[C@@H](O)CO [Lactitol, lactitol] | 459.1 | – | – |
| O=C[C@H](O)[C@@H](O)[C@H](O)CO [Xylose, xylose] | 442.6 | 100 | – |
| O=C[C@@H](O)[C@H](O)[C@H](O)CO [Arabinose, arabinose] | 391.1 | – | – |
| O=C[C@H](O)[C@H](O)[C@H](O)CO [Ribose, ribose] | 329.6 | – | – |
| OC[C@@H](O)[C@@H](O)[C@H](O)[C@H](O)CO [Mannitol] | 182.2 | – | – |
| Inulin | 0.0 | – | – |
| O=C(CO)[C@@H](O)[C@@H](O)[C@H](O)CO [Tagatose, tagatose] | – | 54 | – |
| O=C[C@H](O)[C@@H](O)[C@H](O[C@@H]1O[C@H](CO)[C@@H](O)[C@H](O)[C@H]1O)[C@H](O)CO [Cellobiose] | 160.6 | – | – |
| OC[C@@H](O)[C@@H](O)[C@H](O)[C@@H](O)CO [Sorbiol] | 372.5 | – | – |
| OC[C@H]1O[C@H](O[C@H]2[C@H](O)[C@@H](O)[C@H](O)O[C@@H]2CO)[C@H](O)[C@@H](O)[C@@H]1O [Maltose] | 58.5 | – | – |
| Glycogen | 184.8 | – | – |
| OC[C@H]1O[C@H](O[C@H]2O[C@H](CO)[C@@H](O)[C@H](O)[C@H]2O)[C@H](O)[C@@H](O)[C@@H]1O [Trehalose, trehalose] | 403.5 | – | – |
| OC[C@H]1O[C@@H](O[C@@H]2[C@@H](CO)OC(O)(CO)[C@H]2O)[C@H](O)[C@@H](O)[C@H]1O (mixture of isomers) [Lactulose] | 8.1 | – | – |
| O=C(CO)[C@H](O)[C@H](O)[C@H](O)CO [Psicose, D-psicose] | – | 139 | significantly promoted equol production |
| OC[C@@H](O)[C@@H](O)CO [Erythritol, erythritol] | 214.2 | – | – |
| C[C@H](O)[C@H](O)[C@@H](O)[C@@H](O)C=O [Rhamnose] | 116.4 | – | – |
| O=C(CO)[C@@H](O)[C@H](O)[C@H](O)CO [Fructose] | 51.5 | – | – |
| OC[C@H]1O[C@H](OCC2O[C@@H](O)[C@H](O)[C@@H](O)[C@@H]2O)[C@H](O)[C@@H](O)[C@H]1O (some centres unmarked) [Melibiose] | 24.8 | – | – |
| OC[C@H]1O[C@H](OC[C@H]2O[C@H](O[C@]3(CO)O[C@H](CO)[C@@H](O)[C@@H]3O)[C@H](O)[C@@H](O)[C@@H]2O)[C@H](O)[C@@H](O)[C@H]1O [Raffinose] | 0.0 | – | – |
| O[C@H]1[C@H](O)[C@@H](O)[C@H](O)[C@@H](O)[C@H]1O [Inositol, inositol] | 416.2 | – | – |
| OC[C@H]1O[C@@](CO)(O[C@H]2O[C@H](CO)[C@@H](O)[C@H](O)[C@H]2O)[C@@H](O)[C@@H]1O [Sucrose, sucrose] | 0.0 | 54 | – |
| OC[C@H]1O[C@@H](O[C@H]2[C@H](O)[C@@H](O)C(O)O[C@@H]2CO)[C@H](O)[C@@H](O)[C@H]1O (some centres unmarked) [Lactose] | 0.0 | – | – |
| OC[C@H]1O[C@@](CO)(O[C@H]2O[C@H](CO)[C@@H](O)[C@H](O)[C@H]2O)[C@@H](O[C@H]2O[C@H](CO)[C@@H](O)[C@H](O)[C@H]2O)[C@@H]1O [Melezitose, melezitose] | 411.6 | – | – |
| O=C[C@H](O)[C@@H](O)[C@@H](O)[C@H](O)CO [Galactose, galactose] | 240.1 | – | – |
| O=C(CO)[C@H](O)[C@@H](O)[C@H](O)CO [Sorbose, sorbose] | 467.7 | – | – |
